{"source": "paper PMC11669939", "about": "“Impairing protein–protein interactions in an essential tRNA modification complex: An innovative antimicrobial strategy against Pseudomonas aeruginosa” (Journal of Peptide Science, 2024)", "key": {"[1]": {"target": "YeaZ protein from P. aeruginosa PAO1, recombinant His-tagged (P. aeruginosa PAO1)", "experiment": "SEC; analytical, Superdex75 Increase 10/300 GL, Hepes 50 mM pH 7.4, NaCl 500 mM, 10% glycerol; YeaZ 0.5 mg/ml (2% DMSO as control); peptide at 200 μM"}, "[2]": {"system": "YeaZ", "experiment": "Intrinsic tryptophan fluorescence (ITF) binding assay", "design": "species or system Pseudomonas aeruginosa", "method": "(§1) Briefly, the YeaZ protein was produced in E. coli M15[pREP4] strain using a pQE30‐PaYeaZ plasmid. Cells were grown in LB medium at 37°C till the OD600 reached 0.6, then the protein expression was induced by isopropyl‐β‐D‐thiogalactoside (IPTG) at a final concentration of 0.1 mM for 5 h at 30°C. After cell collection, the pellet was resuspended in a lysis buffer containing 50 mM phosphate buffer, 150 mM NaCl, and 10 mM imidazole, pH 7.4. Cells were subsequently disrupted by a French press disruptor (20 bar pressure), and one tablet of protease inhibitor (Roche), 10 mg/ml DNase I, and 5 mg/ml Ribonuclease A were added to the solution. After centrifugation at 18,000 rpm for 45 min, the supernatant was collected, filtered, and loaded onto a Ni‐NTA Superflow (GE Healthcare Life Science). YeaZ was further purified using a Superdex 75 gel filtration column (GE Healthcare Life Science) in buffer 50 mM Hepes pH 7.4, 150 mM NaCl at a concentration of 0.5 mg/ml, in which freshly purified protein exists as a monomer in solution, and stored at −80°C.\nSpectrofluorometric assays were performed on a Varian Cary Eclipse fluorescence spectrophotometer (Agilent Technologies) at 20°C. YeaZ was used at a final concentration of 0.065 mg/ml in buffer Hepes 50 mM pH 7.4, NaCl 500 mM, 10% glycerol (with 2% v/v DMSO as control), while the peptides were used at a final concentration of 200 μM. We used an excitation wavelength of 280 nm and registered the fluorescence emission spectra between 300 and 400 nm. Measures were performed in triplicates.\nTo evaluate the binding of PMP2 in vitro, the recombinant His‐tagged YeaZ protein from PAE PAO1 was produced in E. coli and purified with final purity and yield values adequate for the binding studies. Compound PMP2 was dissolved to 10mM with 100% DMSO and tested in in vitro assays at a final concentration of 200 μM (corresponding to a DMSO concentration of 2%). The interaction with the protein was first evaluated by exploiting the intrinsic fluorescence of the tryptophan residues (ITF) contained in the protein's amino acid sequence. […] Analytical size exclusion chromatography (SEC) was then run to evaluate the peptide's ability to disrupt or interfere with the formation of the homodimers. The YeaZ protein alone eluted at a volume corresponding mainly to its dimeric form (estimated molecular weight of 51 kDa of the main peak) and the effect of 2% v/v DMSO was irrelevant.\n(§2) PMP3 was then dissolved to 1mM in MilliQ water and evaluated in vitro in ITF assays. […] To further investigate the binding with PMP3, we performed a concentration‐response curve increasing the amounts of peptide. […] We thus performed an MST assay exploiting the perturbation of thermal diffusion at 650 nm plotted against the peptide concentration. The MO."}, "[3]": {"settings": "previous work; cited from earlier work", "from_the_text": "Since the PPIs and hot spots involved in the PAE YeaZ homodimer are conserved in the YeaZ/YgjD heterodimer,[21], [25], [26] we hypothesized that PMP1 might also represent a good starting point to target the YeaZ/YgjD interface. In this work, we report our studies focused on the PPIs involved in the formation of the TC‐complex and their possible inhibition by PMP1 derivatives. The final aim was the interference of t^6A37 biosynthesis and, consequently, the achievement of bacterial growth impairment."}, "[4]": {"experiment": "Solubility, hydrophobicity and aggregation of the peptides", "type": "physicochemical"}, "[5]": {"settings": "cited from earlier work", "from_the_text": "P. aeruginosa (PAE) is a Gram‐negative bacterium that has been ranked by WHO as one out of three pathogens with the highest global priority for the development of novel effective antibacterials.[17] PAE is a major cause of both acute and chronic lung infections, which develop in up to 60%–70% of cystic fibrosis (CF) patients, often leading to a more rapid decline of lung function that turns into greater morbidity and mortality.[18], [19], [20] The misuse of classical antibiotics, whose mechanism of action is usually based on the interaction with a well‐defined ligand binding site, led to an ev ... || These observations supported our hypothesis that PMP1 should be able to bind to YeaZ and consequently reduce its ability to form protein complexes, thus impairing its function. […] Indeed, the PMP2 peptide derives from the PMP1 sequence RIAIGVVQGLAFAL (Arg73‐Leu86) and thus contains the four hot ..."}, "[6]": {"system": "P. aeruginosa PAO1", "experiment": "Bacterial growth inhibition assay, P. aeruginosa PAO1", "type": "cell-based, Pseudomonas aeruginosa", "settings": "3, 10, 30 μM; Mueller Hinton Broth, 37°C, OD595 every 15 min; mean of three independent experiments", "method": "(§3) Growth inhibition experiments were performed with P. aeruginosa PAO1 strain[37] and Escherichia coli K‐12 MG1655.[38] Cells were grown overnight in 10 ml of LB medium at 37°C with shaking. Overnight cultures were washed twice with phosphate‐buffered saline (PBS) and inoculated to an optical density at 595 nm (OD595) of 0.05 in 10 ml of Mueller Hinton Broth (Sigma‐Aldrich). Aliquots (200 μl) of inoculated medium were distributed in triplicate (technical replicates) in a 96‐Well Cellstar® suspension culture plate (Greiner Bio‐One) and incubated in a Sunrise microplate reader (Tecan Group) at 37°C with constant orbital shaking and real‐time OD595 measurements every 15 min. Three final peptide concentrations were tested: 3, 10, and 30 μM, respectively. Controls were made by adding sterilized water, in the same amount of the added peptide volumes. Three independent replicates were performed. Data were reported by plotting, at each time point, the mean OD595 values of the three replicates with error bars indicating Standard Error of Mean (SEM)."}, "[7]": {"system": "YeaZ homodimer", "experiment": "Analytical size exclusion chromatography (SEC)", "type": "binding, Pseudomonas aeruginosa", "settings": "peptide 200 μM, 2% DMSO, YeaZ 0.5 mg/ml", "method": "as §1, with “YeaZ was further purified using a Superdex 75 gel filtration column (GE Healthcare Life Science) in buffer 50 mM Hepes pH 7.4, 150 mM NaCl at a concentration of 0.5 mg/ml, in which freshly purified protein exists as a monomer in solution, and stored at −80°C.” left out\nTo evaluate the binding of PMP2 in vitro, the recombinant His‐tagged YeaZ protein from PAE PAO1 was produced in E. coli and purified with final purity and yield values adequate for the binding studies. […] The interaction with the protein was first evaluated by exploiting the intrinsic fluorescence of the tryptophan residues (ITF) contained in the protein's amino acid sequence. […]"}, "[8]": {"system": "Escherichia coli K‐12 MG1655", "experiment": "Bacterial growth inhibition assay, E. coli MG1655", "type": "cell-based", "settings": "3, 10, 30 μM; Mueller Hinton Broth, 37°C, OD595 every 15 min; mean of three independent experiments", "method": "as §3"}, "[9]": {"target": "YeaZ", "experiment": "Microscale thermophoresis (MST) assay", "type": "binding, Pseudomonas aeruginosa", "settings": "50 nM RED‐NHS labeled YeaZ, Hepes 50 mM pH 7.4, NaCl 500 mM, 10% glycerol, 0.05% Tween20, 24°C, 650 nm, triplicates; saturation plateau not reached, precise value not calculable", "method": "Microscale thermophoresis (MST) experiments were performed using a Monolith X apparatus (NanoTemper Technologies GmbH, Munich, Germany) and analyzed with the MO. Affinity Analysis software (NanoTemper Technologies GmbH). Briefly, YeaZ was labeled with the red fluorescent dye RED‐NHS 2° generation according to manufacturer instructions. MST measurements were performed in triplicates at 24°C on in Hepes 50 mM pH 7.4, NaCl 500 mM, 10% glycerol, and 0.05% Tween20, using premium‐treated glass capillaries and at a fixed concentration of 50 nM YeaZ. Results were merged and analyzed.\nas §2"}, "[10]": {"experiment": "Circular dichroism analysis", "type": "physicochemical", "settings": "20 μM, 20°C", "method": "CD spectra were acquired on a JASCO J‐715 spectropolarimeter in a 1‐mm quartz cuvette, under N2, between 260 and 185 nm, at 20°C with 0.5 nm intervals, and 3 measurements were accumulated (settings: 100 mdeg sensitivity, continuous scan mode, 50 nm/min scan speed, 2 s response, bandwidth 1.0 nm). The resulting signal was converted from ellipticity (mdeg) to molar ellipticity [Q] in deg · cm^2 · dmol^−1. Peptides were solubilized in 100% MilliQ water or 1:1 water/TFE at 20 μM concentration. The helical propensity [R] was calculated using the R‐value, i.e. the ratio between molar ellipticity values at 222 and 207 nm, where R = 1 is defined as a reference for an ideal α‐helix."}}}
{"substance": "YeaZ protein from P. aeruginosa PAO1, recombinant His-tagged (from UniProt A0A0H2ZEW0 1-226) (natural protein)", "values": [{"measurement": "stoichiometry N", "setting": "[1]", "result": 2}]}
{"substance": "AIAIGVVQGLAFAL‐GG‐KKKG [PMP2]", "values": [{"measurement": "fluorescence emission of YeaZ in presence of peptide (ITF)", "setting": "[2]; peptide 200 μM, 2% DMSO, YeaZ 0.065 mg/ml, Hepes 50 mM pH 7.4, NaCl 500 mM, 10% glycerol, 20°C, excitation 280 nm, emission 300-400 nm, triplicates", "result": "decreased fluorescence emission spectrum compared to the protein alone"}, {"measurement": "helicity outside the protein environment", "setting": "[3]", "result": "maintain helicity outside the protein environment"}, {"measurement": "solubility", "setting": "[4]; any tested solvent (H2O, 100% DMSO, 10 mM NaOH)", "result": "poor solubility"}, {"measurement": "aggregation", "setting": "[4]; in solution at higher concentrations, prevented evaluation of a dose–response constant", "result": "formation of aggregates in solution at higher concentrations"}, {"measurement": "self‐assembly", "setting": "[5]; by fine‐tuning of the environmental conditions", "result": "capable of self‐assembling in helical nanofibers and 2D sheets as well as forming hydrogels"}, {"measurement": "growth inhibition of PAE PAO1", "setting": "[6]", "result": "no effect of growth inhibition could be observed"}, {"measurement": "estimated molecular weight of the YeaZ dimeric peak (SEC)", "setting": "[7]; Hepes 50 mM pH 7.4, NaCl 500 mM, 10% glycerol, Superdex75 Increase 10/300, YeaZ alone 51 kDa", "result": 49, "unit": "kDa"}, {"measurement": "effect on the YeaZ dimeric peak (SEC)", "setting": "[7]; pH 7.4", "result": "slight shift of the dimeric peak towards a smaller molecular weight"}, {"measurement": "growth inhibition of E. coli MG1655", "setting": "[8]", "result": "no effect of growth inhibition could be observed"}]}
{"substance": "AIAIGVVQGLAFAL‐GG‐[R‐Ahx‐R]4‐Ahx‐β‐Ala [PMP3]", "values": [{"measurement": "intrinsic fluorescence of the peptide", "setting": "[2]; above a concentration threshold, at 310–340 nm, prevented concentration‐response evaluation", "result": "higher than the intrinsic fluorescence of the YeaZ protein"}, {"measurement": "fluorescence intensity of YeaZ in presence of peptide (ITF)", "setting": "[2]; peptide 200 μM, from 1mM in MilliQ water, YeaZ 0.065 mg/ml, Hepes 50 mM pH 7.4, NaCl 500 mM, 10% glycerol, 20°C, excitation 280 nm, triplicates", "result": "reduction of the fluorescence intensity"}, {"measurement": "shift of emission towards shorter wavelengths (ITF), wavelength", "setting": "[2]; peptide 200 μM, from 1mM in MilliQ water, YeaZ 0.065 mg/ml, pH 7.4, 20°C, slight shift", "result": "around 330 nm"}, {"measurement": "growth inhibition of PAE PAO1", "setting": "[6]", "result": "significant concentration‐dependent decrease in the growth rates"}, {"measurement": "Kd (MST)", "setting": "[9]", "result": "low micromolar"}, {"measurement": "secondary structure by CD", "setting": "[10]; 1:1 water/TFE", "result": "a clear α‐helix conformation was observed"}, {"measurement": "secondary structure by CD", "setting": "[10]; 100% MilliQ water", "result": "did not show any particular secondary structure"}, {"measurement": "helical propensity R", "setting": "[10]; ratio of molar ellipticity at 222 and 207 nm (R = 1 ideal α‐helix), 1:1 water/TFE", "result": 0.78}, {"measurement": "growth inhibition of E. coli MG1655", "setting": "[8]", "result": "much weaker than those observed for PAO1"}]}
{"substance": "AIAIGVVQGLAFAL [PMP1]", "values": [{"measurement": "hydrophobicity", "setting": "[5]", "result": "too hydrophobic"}]}
